Consider 1 compound from patent US20060127505A1, “Anti-inflammatory formulations” (priority 2002, published 2006).

Experiment [1] deals with CD3+HLA-DR+ lymphocytes in human PBMC. Description: PHA-mediated induction of CD3+HLA-DR+ lymphocytes in human PBMC (Example 8). Format: cell-based. To be noted: PHA 50 μg/ml, 24 hours. As for the experimental part:
Cells from 3-12 asthma patients were cultured 24 hours with 50 μg/ml PHA. PBMC evaluated by 2-color flow cytometry were gated for CD3+ and analyzed for CD3+CD25+ or CD3+HLA-DR+ as a percentage of the CD3+ population. Results are reported as stimulation indices (SI) calculated as the ratio of % CD3+CD25+ cells or % CD3+HLA-DR+ cells in fully-stimulated cultures to % CD3+CD25+ or % CD3+HLA-DR+ respectively in cells treated with PHA plus ASX, GB, or combinations thereof.

Experiment [2] in a line: Allergy symptoms in an allergy patient. Format: in vivo, human. As to the method:
Astaxanthin or astaxanthin plus a cetirizine together was administered to an allergy patient.

As for `CC1=C(/C=C/C(C)=C/C=C/C(C)=C/C=C/C=C(C)/C=C/C=C(C)/C=C/C2=C(C)C(=O)[C@@H](O)CC2(C)C)C(C)(C)C[C@H](O)C1=O` [astaxanthin, 3,3′-dihydroxy-4,4′-diketo-B-carotene], the “CD3+HLA-DR+ Stimulation Index” value in experiment [1] (10^−4 M) was determined as 0.85 ± 0.18; in experiment [1] (10^−5 M), 0.79 ± 0.19; in experiment [1] (10^−6 M), 0.83 ± 0.23; in experiment [1] (10^−7 M), 0.71 ± 0.23; in experiment [1] (10^−8 M) it was 0.68 ± 0.16. The “alleviation of allergy symptoms such as itching” value in experiment [2] was “did not result in alleviation of allergy symptoms”.
